Reference: patent US20250304623A1, “PEPTIDES FOR INTRACELLULAR DELIVERY” (UNIVERSIDADE DE SANTIAGO DE COMPOSTELA, priority 2022, published 2025)
*: point of attachment. NHNH2 = NN*

How the values were obtained:
Assay type in all cases: cell-based
Hek293 cells = assay: RLuc pDNA delivery, robotic library screening, Hek293
HCT116 cells = assay: EGFP mRNA delivery, robotic library screening, HCT116
Method: Cells were seeded in a 96 well plate the day before the experiment at a concentration of 50,000 cell/mL (100 μL/w) in DMEM+10% FBS+1% Gln-Abt. For robotic library screening, the delivery of EGFP-mRNA (from TriLink, fully substituted with 5-methoxyuridine, capped and polyadenylated; TriLink, CleanCap® EGFP mRNA (5moU), ref. L-7201) in six different cell lines was performed. Amphiphilic molecule stock solutions were prepared in DMSO as described above and diluted in DMEM to afford a range of concentrations. The solutions of EGFP-mRNA/amphiphilic molecule complexes were freshly prepared prior to the transfection experiments. 35 μL of the corresponding amphiphile were added to 10 μL of a solution of EGFP-mRNA at 10 ng/μL in DMEM. The mixture was shaken for 30 min at room temperature before the addition to the cells. The cell medium was aspirated, and cells were washed with PBS twice. Cells were covered with 39 μL of DMEM and 11 μL of the complex's solution were added to the cells and incubated for 4 h (final concentration of peptide=2.5, 5 and 10 μM; final concentration of EGFP-mRNA=25 ng/well). After the incubation, the medium was replaced by 100 μL of fresh DMEM supplemented with 10% FBS. The total EGFP fluorescence was quantified after 72 h in a well plate reader. Amphiphile transfection efficiency was compared and normalized to Lipofectamine® MessengerMax efficiency (value of 1 in Tables 1-5 and 7; double underlined numbers). All experiments were done in triplicate.
Tables 1-7: RLuc (pDNA) or EGFP (mRNA) expression levels were normalized to Lipofectamine reagents (value=1) and expressed as fold-times signal increase. In the case of siRNA, the siRNA treated cells fluorescence was compared with siMOCK control fluorescence, while Cas9-RNP mediated knockout was measured against the fluorescence of untreated cells. In both siRNA and Cas9-RNP, values are expressed as % fluorescence reduction. Amphiphile concentration was 5 μM in all cases. All experiments were performed in triplicate.
Tables 14-19 show the mean (triplicates) fluorescence intensity measured after the transfection of EGFP mRNA by different amphiphiles at different concentrations in a variety of cell lines. Background fluorescence values, accounted by untreated control cells, were subtracted for processing.

[1] = test system: Hek293 cells expressing EGFP; assay: Cas9-RNP delivery against EGFP (gene editing, plate reader), Hek293
Method: (§1) To generate an EGFP expressing HeLa cell line, HeLa cells were transfected with EGFP pDNA (pEGFP-C1, Clontech) and stable transfectants were selected with 400 μg/mL of G-418 (Millipore). Green clones were selected by epifluorescence microscopy and tested for EGFP expression stability through several passages. […] All other EGFP-expressing cell lines were obtained in a similar way from parent non-EGFP-expressing cell lines.
(§2) Cells expressing EGFP were seeded in a 96 well plate the day before the experiment at a concentration of 50,000 cell/mL (100 μL/w) in DMEM+10% FBS+1% Gln-Abt. For robotic library screening, the delivery of Cas9-RNP against EGFP (RNP designed to knock-out the gene encoding for the enhanced green fluorescent protein (EGFP)) was performed. For RNP assembly, 9.2 μL of crRNA and 9.2 μL of tracrRNA were mixed in 211.6 μL of Nuclease-Free Duplex Buffer (IDT), incubated for 5 min at 95° C. and slowly cooled at rt (see I. Lostalé-Seijo, et al. Peptide/Cas9 nanostructures for ribonucleoprotein cell membrane transport and gene edition, Chem. Sci., 2017). Cas9 protein was dissolved in DMEM at a final concentration of 4 μM and equal volumes of the RNA complex and Cas9 were mixed and incubated for 5 min at rt. 75 μL of the corresponding amphiphile concentrations were added to 5 μL of RNP at 2 μM. The mixture was shaken for 30 min at room temperature before the addition to the cells. The cell medium was aspirated, and cells were washed twice with PBS. Cells were covered with 30 μL of DMEM and 20 μL of the RNP/amphiphile complexes were added to the cells (final peptide concentrations=2.5, 5 and 10 μM; final Cas9-RNP concentration=50 nM) and incubated for 4 h. After the incubation, the medium was replaced by 100 μL of fresh DMEM supplemented with 10% FBS. The total EGFP fluorescence was quantified after 72 h in a plate reader (FIG. 2, Table 1 (right) and Table 6). All experiments were done in triplicate. […]
(§3) Tables 26-31 show the mean (triplicates) percentage of gene editing, accounted by GFP fluorescence intensity decrease (% of reduction), measured after the transfection of Cas9-RNP by different amphiphiles at different concentrations in a variety of cell lines. Background values, accounted by untreated control cells, were subtracted for processing.

[2] = test system: HepG2 cells expressing EGFP; assay: Cas9-RNP delivery against EGFP (gene editing, plate reader), HepG2
Method: as §1, §2, §3

Substance | mean luminescent intensity (RLuc pDNA) (Hek293 cells; Dodecanal, 10 μM) | mean luminescent intensity (RLuc pDNA) (Hek293 cells; Dodecanal, 15 μM) | mean luminescent intensity (RLuc pDNA) (Hek293 cells; Palmitoleyl, 5 μM) | mean luminescent intensity (RLuc pDNA) (Hek293 cells; Petroselinyl, 5 μM) | mean luminescent intensity (RLuc pDNA) (Hek293 cells; Petroselinyl, 10 μM) | mean fluorescence intensity (EGFP mRNA) (HCT116 cells; Dodecanal, 5 μM) | mean fluorescence intensity (EGFP mRNA) (HCT116 cells; Myristoleyl, 2.5 μM) | mean fluorescence intensity (EGFP mRNA) (HCT116 cells; Myristoleyl, 5 μM) | mean fluorescence intensity (EGFP mRNA) (HCT116 cells; Petroselinyl, 2.5 μM) | mean fluorescence intensity (EGFP mRNA) (HCT116 cells; Petroselinyl, 5 μM) | mean fluorescence intensity (EGFP mRNA) (HCT116 cells; Petroselinyl, 10 μM) | percentage of gene editing, GFP fluorescence intensity decrease (% of reduction) ([1]; Dodecanal, 5 μM) | percentage of gene editing, GFP fluorescence intensity decrease (% of reduction) ([1]; Oleyl, 10 μM) | percentage of gene editing, GFP fluorescence intensity decrease (% of reduction) ([1]; Palmitoleyl, 5 μM) | percentage of gene editing, GFP fluorescence intensity decrease (% of reduction) ([1]; Palmitoleyl, 10 μM) | percentage of gene editing, GFP fluorescence intensity decrease (% of reduction) ([1]; Palmitoleyl, 15 μM) | percentage of gene editing, GFP fluorescence intensity decrease (% of reduction) ([1]; Petroselinyl, 5 μM) | percentage of gene editing, GFP fluorescence intensity decrease (% of reduction) ([2]; Dodecanal, 10 μM) | percentage of gene editing, GFP fluorescence intensity decrease (% of reduction) ([2]; Dodecanal, 15 μM) | percentage of gene editing, GFP fluorescence intensity decrease (% of reduction) ([2]; Myristoleyl, 10 μM) | also measured
Ac-RK*LRK*K*L-NH2 (Ac-RK(NHNH2)LRK(NHNH2)K(NHNH2)L-NH2; not fully specified; printed as Ac-RK*LRK*K*L-NH2; also: K*2,K*5,K*6: native or modified lysine (ε-amide to a linker)) [Peptide 7.3] | 11481 RLU | 13690 RLU | 2088 RLU | 7479 RLU | 2932 RLU | 6749 | 35826 | 2060 | 6670 | 1464 | 1093 | −11% | −34% | 23% | −1% | 3% | 29% | −24% | −29% | −20% | mean luminescent intensity (RLuc pDNA) (Hek293 cells; Myristoleyl, 5 μM): 94318 RLU; mean luminescent intensity (RLuc pDNA) (Hek293 cells; Myristoleyl, 10 μM): 179823 RLU; mean fluorescence intensity (EGFP mRNA) (HCT116 cells; Dodecanal, 2.5 μM): 5668; mean fluorescence intensity (EGFP mRNA) (HCT116 cells; Dodecanal, 10 μM): 1139; percentage of gene editing, GFP fluorescence intensity decrease (% of reduction) ([1]; Dodecanal, 15 μM): −15%; percentage of gene editing, GFP fluorescence intensity decrease (% of reduction) ([1]; Myristoleyl, 5 μM): −20%; percentage of gene editing, GFP fluorescence intensity decrease (% of reduction) ([1]; Petroselinyl, 10 μM): 34%; percentage of gene editing, GFP fluorescence intensity decrease (% of reduction) ([1]; Petroselinyl, 15 μM): 23%; percentage of gene editing, GFP fluorescence intensity decrease (% of reduction) ([2]; Dodecanal, 5 μM): −21%; percentage of gene editing, GFP fluorescence intensity decrease (% of reduction) ([2]; Myristoleyl, 5 μM): −19%; percentage of gene editing, GFP fluorescence intensity decrease (% of reduction) ([2]; Myristoleyl, 15 μM): −14%; percentage of gene editing, GFP fluorescence intensity decrease (% of reduction) ([2]; Oleyl, 5 μM): −7%; percentage of gene editing, GFP fluorescence intensity decrease (% of reduction) ([2]; Oleyl, 10 μM): −3%; percentage of gene editing, GFP fluorescence intensity decrease (% of reduction) ([2]; Oleyl, 15 μM): −1%; percentage of gene editing, GFP fluorescence intensity decrease (% of reduction) ([2]; Palmitoleyl, 5 μM): −14%; percentage of gene editing, GFP fluorescence intensity decrease (% of reduction) ([2]; Palmitoleyl, 10 μM): −14%; percentage of gene editing, GFP fluorescence intensity decrease (% of reduction) ([2]; Palmitoleyl, 15 μM): −4%; percentage of gene editing, GFP fluorescence intensity decrease (% of reduction) ([2]; Petroselinyl, 10 μM): −1%
Ac-RK*LRRLLRK*-NH2 (Ac-RK(NHNH2)LRRLLRK(NHNH2)-NH2; not fully specified; printed as Ac-RK*LRRLLRK*-NH2; also: K*2,K*9: native or modified lysine (ε-amide to a linker)) [Peptide 9.2] | 32272 RLU | 18149 RLU |  |  |  | 438 | 1498 |  |  | 662 |  | −38% |  |  |  |  |  | −35% | −35% | −17% | mean luminescent intensity (RLuc pDNA) (Hek293 cells; Oleyl, 15 μM): 435 RLU; percentage of gene editing, GFP fluorescence intensity decrease (% of reduction) ([1]; Dodecanal, 10 μM): −55%
Ac-RHLK*RLK*RRLK*RL-NH2 (Ac-RHLKRLKRRLKRL-NH2; not fully specified (residues 4, 7, 11); printed as Ac-RHLK*RLK*RRLK*RL-NH2; also: linker on K* not given here) [13(Arg-His)] | 309302 RLU | 78888 RLU | 280799 RLU | 258944 RLU | 217264 RLU |  | 2974 | 4154 | 1065 | 490 | 61 | 21% | −8% | 1% | 5% | −26% | 8% | −10% | 14% | 33% | mean luminescent intensity (RLuc pDNA) (Hek293 cells; Dodecanal, 5 μM): 265059 RLU; mean luminescent intensity (RLuc pDNA) (Hek293 cells; Palmitoleyl, 10 μM): 124471 RLU; mean luminescent intensity (RLuc pDNA) (Hek293 cells; Palmitoleyl, 15 μM): 19968 RLU; mean luminescent intensity (RLuc pDNA) (Hek293 cells; Petroselinyl, 15 μM): 101890 RLU; mean fluorescence intensity (EGFP mRNA) (HCT116 cells; Myristoleyl, 10 μM): 4744; mean fluorescence intensity (EGFP mRNA) (HCT116 cells; Palmitoleyl, 2.5 μM): 4249; percentage of gene editing, GFP fluorescence intensity decrease (% of reduction) ([1]; Myristoleyl, 15 μM): −75%; percentage of gene editing, GFP fluorescence intensity decrease (% of reduction) ([1]; Oleyl, 15 μM): −8%; percentage of gene editing, GFP fluorescence intensity decrease (% of reduction) ([1]; Petroselinyl, 10 μM): −19%; percentage of gene editing, GFP fluorescence intensity decrease (% of reduction) ([1]; Petroselinyl, 15 μM): −44%; percentage of gene editing, GFP fluorescence intensity decrease (% of reduction) ([2]; Dodecanal, 5 μM): −31%; percentage of gene editing, GFP fluorescence intensity decrease (% of reduction) ([2]; Myristoleyl, 5 μM): 10%; percentage of gene editing, GFP fluorescence intensity decrease (% of reduction) ([2]; Oleyl, 10 μM): −4%; percentage of gene editing, GFP fluorescence intensity decrease (% of reduction) ([2]; Oleyl, 15 μM): 15%; percentage of gene editing, GFP fluorescence intensity decrease (% of reduction) ([2]; Palmitoleyl, 5 μM): −8%; percentage of gene editing, GFP fluorescence intensity decrease (% of reduction) ([2]; Palmitoleyl, 10 μM): 26%; percentage of gene editing, GFP fluorescence intensity decrease (% of reduction) ([2]; Palmitoleyl, 15 μM): 7%; percentage of gene editing, GFP fluorescence intensity decrease (% of reduction) ([2]; Petroselinyl, 5 μM): −27%
